# According to publication PMC2918893 (Journal of biomolecular NMR, 2009):
# Biological target: T1, HisF (cyclase subunit of imidazole glycerol phosphate synthase, IGPS) (Thermotoga maritima, UniProt Q9X0C6)
# T1 sequence (Q9X0C6 1-253): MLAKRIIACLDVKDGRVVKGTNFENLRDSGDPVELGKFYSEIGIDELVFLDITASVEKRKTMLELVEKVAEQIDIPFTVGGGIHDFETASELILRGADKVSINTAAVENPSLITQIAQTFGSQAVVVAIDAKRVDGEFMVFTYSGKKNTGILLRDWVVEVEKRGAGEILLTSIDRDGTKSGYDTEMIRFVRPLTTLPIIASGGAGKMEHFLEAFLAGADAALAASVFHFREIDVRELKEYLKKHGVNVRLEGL
# T1 sequence (Q9X0C8 1-201 partner): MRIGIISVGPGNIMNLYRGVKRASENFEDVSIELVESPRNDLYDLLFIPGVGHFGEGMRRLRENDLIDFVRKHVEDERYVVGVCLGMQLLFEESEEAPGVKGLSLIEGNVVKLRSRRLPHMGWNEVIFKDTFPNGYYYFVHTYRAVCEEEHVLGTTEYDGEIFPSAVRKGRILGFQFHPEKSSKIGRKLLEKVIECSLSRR
# Test: 1H-15N TROSY NMR titration, global fit of chemical shift changes of […] residues
# Assay type: binding
smiles,measurement,value
O=P(O)(O)OC[C@@H](O)[C@@H](O)c1c[nH]cn1 [IGP],Kd,500 ± 100 µM
